# Laboratory results as given in patent publication US20260098061A1, “EPHA2-BINDING PENDING PEPTIDE AND COMPOSITION COMPRISING SAME” (PeptiDream Inc., priority 2022, published 2026).
# Numbered stars: 1 amine (or outer) side, 2 acyl side, 3 side chain; on linkers, the order of the positions; unused ones are H or OH. Bridge positions count the residues as written; N and C are the ends. Square brackets hold non-standard residues; d marks the D form. Primed or numbered codes have the meaning given here. Side chains are listed from the residue outwards. Peptide text beside a SMILES is read from it. * marks the point of attachment. Qglucamine = (2S)-2-amino-4-{[(2S,3R,4R,5R)-2,3,4,5,6-pentahydroxyhexyl]carbamoyl}butanoic acid, O=C(CC[C@H](N[*:1])C(=O)[*:2])NC[C@H](O)[C@@H](O)[C@H](O)[C@H](O)CO; KCOpipzaa″ = (2S)-2-amino-6-{[4-(carboxymethyl)piperazine-1-carbonyl]amino}hexanoic acid, O=C(NCCCC[C@H](N[*:1])C(=O)[*:2])N1CCN(CC(=O)[*:3])CC1; Hgn″ = (2S)-2-amino-5-carbamoylpentanoic acid (homoglutamine), NC(=O)CCC[C@H](N[*:1])C(=O)[*:2]; Hgn(3) = 2-amino-5-carbamoylpentanoic acid (homoglutamine), NC(=O)CCC[C@H](N[*:1])C(=O)[*:2]; Hgn = (2S)-2-amino-5-carbamoylpentanoic acid, NC(=O)CCC[C@H](N[*:1])C(=O)[*:2]; Trp(1-Me,7-Cl) = Cn1cc(C[C@H](N)C(=O)O)c2cccc(Cl)c21; dPhe(3-CONH2) = NC(=O)c1cccc(C[C@@H](N)C(=O)O)c1; Piperazinyl(4-CH2COOH) = O=C(O)CN1CCN(*)CC1; Trp(1-Me) = Cn1cc(C[C@H](N)C(=O)O)c2ccccc21; NMe3Pal = CN[C@@H](Cc1cccnc1)C(=O)O; NMeF = CN[C@@H](Cc1ccccc1)C(=O)O; hArg = N=C(N)NCCCC[C@H](N)C(=O)O; hCit = NC(=O)NCCCC[C@H](N)C(=O)O; Gly(cBu) = N[C@H](C(=O)O)C1CCC1; NMeE = CN[C@@H](CCC(=O)O)C(=O)O; Aad = N[C@@H](CCCC(=O)O)C(=O)O; Pen = CC(C)(S)[C@H](N)C(=O)O; CO = O=C([*:1])[*:2]
# Molecular target: T1, Recombinant Human EphA2 Fc Protein (Homo sapiens, UniProt P29317)
# T1 construct: purchased Elabscience
# Experiment: SPR interaction analysis (Biacore T200), kinetics of peptides against EphA2
# Assay type: binding
# Conditions: Recombinant Human EphA2 Fc Protein captured by Human Antibody Capture kit; single-cycle kinetics; 25° C.; HBS-P+ buffer with 1% DMSO
# How it was run: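 On a Biacore T200 at 25° C, Fc-tagged human EphA2 was captured via anti-human antibody; peptides ran as five serial dilutions in HBS-P+ pH 7.4 with 1% DMSO by single-cycle kinetics. Baseline-subtracted data fitted for ka and kd, from which KD was derived.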
row,Molecule,Kd [nM]
1,"CN1C(=O)[C@H](CCCC(N)=O)NC(=O)[C@H](C2CCC2)NC(=O)[C@H](CC(N)=O)NC(=O)[C@H](Cc2cccnc2)N(C)C(=O)[C@@H](Cc2cccc(C(N)=O)c2)NC(=O)CSC(C)(C)[C@@H](C(N)=O)NC(=O)[C@H](Cc2cn(C)c3ccccc23)NC(=O)[C@H](CCCCNC(=O)N2CCN(CC(=O)O)CC2)NC(=O)[C@H](Cc2cn(C)c3c(Cl)cccc23)NC(=O)[C@@H]1CCC(=O)O [PDC_EphA2-00026609, df3CON-Me3Py-N-Cbg-Hgn-MeE-W1Me7Cl-KCOpipzaa-W1Me-CdMe-NH2] ({CH2CO}-[dPhe(3-CONH2)][NMe3Pal]N[Gly(cBu)][Aad](NH2)[NMeE][Trp(1-Me,7-Cl)]K([CO-Piperazinyl(4-CH2COOH)])[Trp(1-Me)][Pen]-NH2; thioether N-10)",1 to 10
2,"C[C@@H]1SCC(=O)N[C@H](Cc2cccc(C(N)=O)c2)C(=O)N(C)[C@@H](Cc2cccnc2)C(=O)N[C@@H](CC(N)=O)C(=O)N[C@@H](C2CCC2)C(=O)N[C@@H](CCCC(N)=O)C(=O)N(C)[C@@H](CCC(=O)O)C(=O)N[C@@H](Cc2cn(C)c3c(Cl)cccc23)C(=O)N[C@@H](CCCCNC(=O)N2CCN(CC(=O)O)CC2)C(=O)N[C@@H](Cc2cn(C)c3ccccc23)C(=O)N[C@@H]1C(N)=O [PDC_EphA2-00026610, df3CON-Me3Py-N-Cbg-Hgn-MeE-W1Me7Cl-KCOpipzaa-W1Me-C3SMe-NH2]",1 to 10
3,"C[C@H]1SCC(=O)N[C@H](Cc2cccc(C(N)=O)c2)C(=O)N(C)[C@@H](Cc2cccnc2)C(=O)N[C@@H](CC(N)=O)C(=O)N[C@@H](C2CCC2)C(=O)N[C@@H](CCCC(N)=O)C(=O)N(C)[C@@H](CCC(=O)O)C(=O)N[C@@H](Cc2cn(C)c3c(Cl)cccc23)C(=O)N[C@@H](CCCCNC(=O)N2CCN(CC(=O)O)CC2)C(=O)N[C@@H](Cc2cn(C)c3ccccc23)C(=O)N[C@@H]1C(N)=O [PDC_EphA2-00026611, df3CON-Me3Py-N-Cbg-Hgn-MeE-W1Me7Cl-KCOpipzaa-W1Me-C3RMe-NH2]",< 1

# Molecular target: T2, Recombinant Human EphA2 Fc Protein (Fc tag, Elabscience) (human, UniProt P29317 24-534)
# T2 construct: Bought protein (Elabscience), captured with the Human Antibody Capture kit; also called hEphA2; not shown: Fc tag of the commercial protein
# Experiment: SPR Biacore T200, EphA2-Fc captured, single-cycle kinetics; grade, legend 0 < A ≤ 1 nM
# Conditions: not given
# Description: The HBS-P+ buffer (10 mM HEPES (pH7.4), 150 mM NaCl, 0.05% (v/V) Surfactant P20) containing 1% DMSO was used as running buffer. Recombinant Human EphA2 Fc Protein (Fc tag, Elabscience) was captured by Human Antibody Capture kit (Cytiva). Peptide samples in DMSO were diluted with running buffer, and prepared five serial dilutions. Using these serial dilutions, kinetics of peptides against EphA2 was measured at a flow rate of 30 mL/min at 25° C. The method adopted for sample measurement was a single-cycle kinetics method. The analysis was conducted using the evaluation software 3.0 provided with Biacore T200. Kinetics fitting was done on the difference data obtained by subtracting the baseline data from sample measurement data. KD values were calculated based on the association rate constant (ka) and dissociation rate constant (kd).
# T2 sequence (P29317 24-534 limits assumed): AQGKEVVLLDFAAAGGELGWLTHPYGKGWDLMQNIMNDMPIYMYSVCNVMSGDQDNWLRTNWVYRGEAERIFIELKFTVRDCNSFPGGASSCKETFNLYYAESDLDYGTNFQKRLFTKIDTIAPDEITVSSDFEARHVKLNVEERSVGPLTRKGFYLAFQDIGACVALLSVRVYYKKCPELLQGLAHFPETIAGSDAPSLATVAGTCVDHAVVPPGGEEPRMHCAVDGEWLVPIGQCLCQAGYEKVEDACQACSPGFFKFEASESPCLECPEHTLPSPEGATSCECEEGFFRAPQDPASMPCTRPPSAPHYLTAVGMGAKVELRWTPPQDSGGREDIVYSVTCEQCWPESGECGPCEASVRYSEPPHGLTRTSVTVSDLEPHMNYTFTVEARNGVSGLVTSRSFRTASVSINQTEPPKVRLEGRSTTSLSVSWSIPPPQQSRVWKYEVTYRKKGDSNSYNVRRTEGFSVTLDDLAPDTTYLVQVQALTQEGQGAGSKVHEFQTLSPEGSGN
row,Molecule,Kd [nM]
1,"{CH2CO}-[dPhe(3-CONH2)][NMeF]N[Gly(cBu)][Hgn(3)][NMeE][Trp(1-Me,7-Cl)][hCit][Trp(1-Me)]T[hArg]C-NH2 (thioether N-12) [PDC_EphA2-00019427]",≤ 1
2,"{CH2CO}-[dPhe(3-CONH2)][NMe3Pal]N[Gly(cBu)][Hgn″][NMe3Pal][Trp(1-Me,7-Cl)][KCOpipzaa″][Trp(1-Me)]T[Hgn″]C-NH2 (thioether N-12; SMILES C[C@@H](O)[C@@H]1NC(=O)[C@H](Cc2cn(C)c3ccccc23)NC(=O)[C@H](CCCCNC(=O)N2CCN(CC(=O)O)CC2)NC(=O)[C@H](Cc2cn(C)c3c(Cl)cccc23)NC(=O)[C@H](Cc2cccnc2)N(C)C(=O)[C@H](CCCC(N)=O)NC(=O)[C@H](C2CCC2)NC(=O)[C@H](CC(N)=O)NC(=O)[C@H](Cc2cccnc2)N(C)C(=O)[C@@H](Cc2cccc(C(N)=O)c2)NC(=O)CSC[C@@H](C(N)=O)NC(=O)[C@H](CCCC(N)=O)NC1=O) [PDC_EphA2-00019438]",≤ 1
3,"{CH2CO}-[dPhe(3-CONH2)][NMe3Pal]N[Gly(cBu)][Hgn][NMe3Pal][Trp(1-Me,7-Cl)][Qglucamine][Trp(1-Me)]T[Hgn]C-NH2 (thioether N-12; SMILES C[C@@H](O)[C@@H]1NC(=O)[C@H](Cc2cn(C)c3ccccc23)NC(=O)[C@H](CCC(=O)NC[C@H](O)[C@@H](O)[C@H](O)[C@H](O)CO)NC(=O)[C@H](Cc2cn(C)c3c(Cl)cccc23)NC(=O)[C@H](Cc2cccnc2)N(C)C(=O)[C@H](CCCC(N)=O)NC(=O)[C@H](C2CCC2)NC(=O)[C@H](CC(N)=O)NC(=O)[C@H](Cc2cccnc2)N(C)C(=O)[C@@H](Cc2cccc(C(N)=O)c2)NC(=O)CSC[C@@H](C(N)=O)NC(=O)[C@H](CCCC(N)=O)NC1=O) [PDC_EphA2-00019437]",≤ 1
